In patent US9567300B2, “Hexahydropentaleno derivatives, preparation method and use in medicine thereof” (SUNSHINE LAKE PHARMA CO., LTD., priority 2012, dated 2017):

Key:
[1] = biological target: T1, DPP-IV (Homo sapiens, UniProt P27487); assay: Active inhibition DPP-IV assay (Gly-Pro-AMC substrate, fluorescence); format: biochemical; conditions: Gly-Pro-AMC 10 μM, 25 mM Tris pH 8.0
T1 construct: purchased R&D 1180-SE
Procedure: (§1) The following methods were used for testing the inhibitive action of the compound disclosed herein against DPP-IV, DPP-8 and DPP-9 enzymatic activity. The inhibitive ability of the compound disclosed herein against enzymatic activity of DPP-IV, DPP-8 and DPP-9 was tested. The measurements of the inhibition ratio or the 50% inhibiting concentration IC50 of every compound were based on a fixed quantity of enzyme-substrate mixtures and different concentrations of the test compounds.
DPP-IV enzyme was purchased from R&D, Catalog No. 1180-SE.
(§2) The test compound was dissolved in an appropriate amount of DMSO to prepare 100 mM mother liquor, which was divided into EP tubes and preserved at −20° C. The mother liquor was diluted with an assay buffer to prepare solutions with required concentrations. Sample solutions with different concentrations (4 μL) and certain concentration of DPP-IV (DPP-8 or DPP-9) solution (4 μL) were added into 384-well plates in turn. Referred to the instruction manual, Gly-Pro-AMC was selected as a substrate and the concentration thereof was 10 μM. The 16 mM mother liquor was prepared from the substrate and preserved at −20° C. for use. The 16 mM mother liquor was diluted with an assay buffer to a solution of known concentration. The assay buffer of DPP-IV was 25 mM Tris, and its pH was 8.0. The assay buffers of DPP-8 and DPP-9 were 50 mM Tris, and their pH was 7.5. The substrate mother liquor was diluted with an assay buffer, and the mixture (4 μL) was added into 384-well plates to prepare final solution concentration. The whole process was carried out in an ice bath. After the addition of the components of the assay system was completed, the system was centrifuged. The supernatant was then transferred to an Infinite F200 multifunctional microplate reader, and 20 fluorescence values were recorded every 30 sec. And then Slope (V0) was calculated directly by the software of microplate reader, fetching the data in the linear range. The measured reaction rate and the corresponding inhibition concentration were analyzed. Percent inhibition is I(%)=(V0−Vi)/V0×100%. Vi represents the initial reaction rate at different inhibition concentrations. V0 represents the initial reaction rate without inhibitor. Vi/V0 represents the inhibition level of inhibitor. Relevant curve chart was made with inhibition concentration as a horizontal coordinate and the value of Vi/V0 as a vertical coordinate. The IC50 values were calculated by Graph Pad Prism statistical analysis software.

[2] = biological target: T2, DPP-9 (Homo sapiens, UniProt Q86TI2); assay: Active inhibition DPP-9 assay (Gly-Pro-AMC substrate, fluorescence); format: biochemical; conditions: Gly-Pro-AMC 10 μM, 50 mM Tris pH 7.5
T2 construct: purchased Bioscience 80090
Procedure: as §1
DPP-9 enzyme was purchased from Bioscience, Catalog No. 80090.
as §2

[3] = biological target: T3, DPP-8 (Homo sapiens, UniProt Q6V1X1); assay: Active inhibition DPP-8 assay (Gly-Pro-AMC substrate, fluorescence); format: biochemical; conditions: Gly-Pro-AMC 10 μM, 50 mM Tris pH 7.5
T3 construct: purchased Biomol SE-827
Procedure: as §1
DPP-8 enzyme was purchased from Biomol, Catalog No. SE-827.
as §2

[4] = test system: normal C57BL/6 mice; assay: Effects of DPP-IV inhibitors on the blood glucose of normal C57BL/6 mice (oral glucose tolerance); format: in vivo; conditions: oral 5 mg/kg; for Nor-sugar rate % (5 mg/kg): male C57BL/6 mice, glucose 2.5 g/kg by gavage 30 min after administration; for hypoglycemic activities for C57BL/6 mice: conclusion in words
Procedure: The effects of the test compounds on the oral glucose tolerance of normal C57BL/6 mice were observed, and the hypoglycemic activities of these compounds in vivo were evaluated preliminarily.
Preparation procedure: Drugs were accurately weighed, and 5 mg of compounds of examples 3, 9 15, 16 and 17 were dissolved respectively in 20 mL of normal saline to obtain 0.25 mg/mL solutions.
Administrated Dose: The oral dose was 5 mg/kg and the gavage dose was 0.02 mL/g.
Test Method: The normal male C57BL/6 mice were grouped randomly into a blank control group, a positive control group, and treatment groups having 7 mice each group.
Administration and Serum Glucose Determination: C57BL/6 mice of each group were fasted for 18 hours before the experiment. The blood was drawn from the caudal vein of the mice and the glucose level was measured by using a blood-glucose meter. After detection, 0.25 mg/mL of positive control, 0.25 mg/mL of examples 3, 9, 15, 16 and 17 and normal saline were respectively administered to the positive control group, treatment groups and blank control group by intragastric administration. The blood glucose level (0 min) of positive control group was measured in 60 min after administration. The blood glucose levels (0 min) of the other groups were measured in 30 min after administration, and then glucose (2.5 g/kg) was administered to the mice through gavage. The blood was drawn from the caudal vein of the mice in 15 min, 30 min, 45 min, 60 min, 120 min after administration. The blood glucose levels of C57BL/6 mice were measured continuously by blood-glucose meter.
1. Glucose concentration-time curve was plotted, and AUC from 0 to 120 min and hypoglycemic rate of each dosage group at blood glucose peak were calculated.
2. Experimental data were represented in x±SD. The data were analyzed by SPSS 16.0 software. The data were compared between multiple groups using nonparametric Kruskal-Wallis H test method.

T3 sequence (Q6V1X1 whole entry): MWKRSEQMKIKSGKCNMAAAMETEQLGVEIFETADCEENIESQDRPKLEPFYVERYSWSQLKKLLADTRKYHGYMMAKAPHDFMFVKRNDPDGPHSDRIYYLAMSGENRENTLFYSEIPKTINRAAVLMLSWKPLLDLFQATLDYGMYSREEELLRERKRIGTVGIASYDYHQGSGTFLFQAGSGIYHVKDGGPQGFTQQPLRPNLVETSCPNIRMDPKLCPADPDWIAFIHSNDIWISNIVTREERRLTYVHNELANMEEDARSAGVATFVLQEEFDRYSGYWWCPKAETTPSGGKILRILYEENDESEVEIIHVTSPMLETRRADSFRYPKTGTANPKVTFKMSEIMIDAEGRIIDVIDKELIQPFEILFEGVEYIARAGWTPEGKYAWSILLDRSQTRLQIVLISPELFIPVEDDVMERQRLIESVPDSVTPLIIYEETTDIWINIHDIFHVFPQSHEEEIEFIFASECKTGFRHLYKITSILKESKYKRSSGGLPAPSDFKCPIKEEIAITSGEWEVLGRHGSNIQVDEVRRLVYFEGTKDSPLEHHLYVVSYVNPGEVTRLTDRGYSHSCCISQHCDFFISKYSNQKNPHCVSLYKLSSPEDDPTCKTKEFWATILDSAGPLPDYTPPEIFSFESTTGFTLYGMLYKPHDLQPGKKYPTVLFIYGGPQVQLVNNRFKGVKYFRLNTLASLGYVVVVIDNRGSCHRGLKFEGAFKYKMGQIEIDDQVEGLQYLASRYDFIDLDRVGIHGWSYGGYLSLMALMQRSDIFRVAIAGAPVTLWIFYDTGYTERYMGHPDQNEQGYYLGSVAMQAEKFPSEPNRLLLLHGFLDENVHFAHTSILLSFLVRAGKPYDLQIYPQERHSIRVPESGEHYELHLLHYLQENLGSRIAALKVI
T1 sequence (P27487 whole entry): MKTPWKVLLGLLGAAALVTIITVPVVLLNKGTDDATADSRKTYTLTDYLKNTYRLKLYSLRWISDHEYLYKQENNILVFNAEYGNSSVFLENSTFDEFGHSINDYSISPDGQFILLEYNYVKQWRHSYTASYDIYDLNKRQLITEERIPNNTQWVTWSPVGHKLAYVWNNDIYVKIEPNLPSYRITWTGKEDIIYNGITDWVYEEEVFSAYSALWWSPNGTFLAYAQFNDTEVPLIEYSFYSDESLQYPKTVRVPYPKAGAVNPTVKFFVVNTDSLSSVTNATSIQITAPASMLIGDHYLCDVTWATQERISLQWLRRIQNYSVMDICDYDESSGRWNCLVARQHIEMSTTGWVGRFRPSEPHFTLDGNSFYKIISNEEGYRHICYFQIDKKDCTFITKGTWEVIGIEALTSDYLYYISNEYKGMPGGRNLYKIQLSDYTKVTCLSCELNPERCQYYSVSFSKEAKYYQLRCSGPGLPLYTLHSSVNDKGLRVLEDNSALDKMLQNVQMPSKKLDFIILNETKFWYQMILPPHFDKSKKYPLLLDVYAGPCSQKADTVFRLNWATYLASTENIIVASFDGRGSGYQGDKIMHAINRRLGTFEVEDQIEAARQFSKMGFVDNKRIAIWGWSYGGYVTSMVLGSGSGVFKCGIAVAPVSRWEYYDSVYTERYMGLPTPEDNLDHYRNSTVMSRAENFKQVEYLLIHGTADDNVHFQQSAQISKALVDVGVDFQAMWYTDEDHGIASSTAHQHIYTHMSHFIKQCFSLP
T2 sequence (Q86TI2 whole entry): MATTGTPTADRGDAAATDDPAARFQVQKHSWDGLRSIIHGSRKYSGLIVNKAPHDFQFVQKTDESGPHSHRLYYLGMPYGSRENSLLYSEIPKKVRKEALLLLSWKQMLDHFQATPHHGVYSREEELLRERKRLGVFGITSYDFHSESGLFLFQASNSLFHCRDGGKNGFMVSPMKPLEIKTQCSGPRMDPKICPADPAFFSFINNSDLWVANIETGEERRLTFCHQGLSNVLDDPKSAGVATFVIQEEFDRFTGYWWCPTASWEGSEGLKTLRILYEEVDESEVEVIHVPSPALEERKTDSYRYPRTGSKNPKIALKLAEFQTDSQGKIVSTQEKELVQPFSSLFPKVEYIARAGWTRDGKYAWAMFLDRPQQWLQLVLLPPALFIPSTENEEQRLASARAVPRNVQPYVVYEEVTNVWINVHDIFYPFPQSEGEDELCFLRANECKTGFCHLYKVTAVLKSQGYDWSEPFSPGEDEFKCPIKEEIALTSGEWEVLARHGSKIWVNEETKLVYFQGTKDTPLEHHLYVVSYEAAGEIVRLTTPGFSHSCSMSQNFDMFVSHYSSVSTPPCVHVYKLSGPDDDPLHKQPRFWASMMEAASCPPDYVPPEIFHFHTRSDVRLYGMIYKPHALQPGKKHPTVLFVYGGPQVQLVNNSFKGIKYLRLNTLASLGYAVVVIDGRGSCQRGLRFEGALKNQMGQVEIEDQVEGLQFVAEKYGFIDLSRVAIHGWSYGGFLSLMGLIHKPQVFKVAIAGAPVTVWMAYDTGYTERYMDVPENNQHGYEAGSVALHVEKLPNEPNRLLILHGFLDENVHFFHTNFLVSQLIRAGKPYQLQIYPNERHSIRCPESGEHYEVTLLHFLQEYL

IC50 [1]	IC50 [2]	IC50 [3]	Structure (SMILES)	Nor-sugar rate % (5 mg/kg) [4]	hypoglycemic activities for C57BL/6 mice [4]
27.4 nM	4330 nM		C[C@@]1(NCC(=O)N2CCC[C@H]2C#N)C[C@H]2C[C@@H](O)C[C@H]2C1 [Example 5, (S)-1-(2-(((2r,3aR,5S,6aS)-5-hydroxy-2-methyloctahydropentalen-2-yl)amino)acetyl)pyrrolidine-2-carbonitrile]		
9.25 nM			C[C@@]1(NCC(=O)N2C[C@@H](F)C[C@H]2C#N)C[C@H]2C[C@@H](OC3CC3)C[C@H]2C1 [Example 13, (2S,4S)-1-(2-(((2r,3aR,5S,6aS)-5-cyclopropoxy-2-methyloctahydropentalen-2-yl)amino)acetyl)-4-fluoropyrrolidine-2-carbonitrile]		
2.43 nM	62 nM	5980 nM	CO[C@H]1C[C@@H]2C[C@@](C)(NCC(=O)N3CCC[C@H]3C#N)C[C@@H]2C1 [Example 10, (S)-1-(2-(((2r,3aR,5R,6aS)-5-methoxy-2-methyloctahydropentalen-2-yl)amino)acetyl)pyrrolidine-2-carbonitrile]		
4.52 nM	193 nM	18200 nM	CCO[C@@H]1C[C@@H]2C[C@@](C)(NCC(=O)N3CCC[C@H]3C#N)C[C@@H]2C1 [Example 6, (S)-1-(2-(((2r,3aR,5S,6aS)-5-ethoxy-2-methyloctahydropentalen-2-yl)amino)acetyl)pyrrolidine-2-carbonitrile]		
4.29 nM	27 nM	2670 nM	CCO[C@@H]1C[C@@H]2C[C@@](C)(NCC(=O)N3C[C@@H](F)C[C@H]3C#N)C[C@@H]2C1 [Example 7, (2S,4S)-1-(2-(((2r,3aR,5S,6aS)-5-ethoxy-2-methyloctahydropentalen-2-yl)amino)acetyl)-4-fluoropyrrolidine-2-carbonitrile]		
11.3 nM	4600 nM	50500 nM	CO[C@@H]1C[C@@H]2C[C@@](C)(NCC(=O)N3CCC[C@H]3C#N)C[C@@H]2C1 [Example 1, (S)-1-(2-(((2r,3aR,5S,6aS)-5-methoxy-2-methyloctahydropentalen-2-yl)amino)acetyl)pyrrolidine-2-carbonitrile]		
6.91 nM	31 nM	3800 nM	C[C@@]1(NCC(=O)N2C[C@@H](F)C[C@H]2C#N)C[C@H]2C[C@@H](OCC3CC3)C[C@H]2C1 [Example 8, (2S,4S)-1-(2-(((2r,3aR,5S,6aS)-5-(cyclopropylmethoxy)-2-methyloctahydropentalen-2-yl)amino)acetyl)-4-fluoropyrrolidine-2-carbonitrile]		
4.03 nM	54 nM	1580 nM	CO[C@@H]1C[C@@H]2C[C@@](C)(NCC(=O)N3C[C@@H](F)C[C@H]3C#N)C[C@@H]2C1 [Example 2, (2S,4S)-4-fluoro-1-(2-(((2r,3aR,5S,6aS)-5-methoxy-2-methyloctahydropentalen-2-yl)amino)acetyl)pyrrolidine-2-carbonitrile]		
4.18 nM	91 nM	2070 nM	C#CC1C[C@@H]2C[C@@](C)(NCC(=O)N3C[C@@H](F)C[C@H]3C#N)C[C@@H]2C1 (stereo partly drawn) [Example 20, (2S,4S)-1-(2-(((2s,3aR,6aS)-5-ethynyl-2-methyloctahydropentalen-2-yl)amino)acetyl)-4-fluoropyrrolidine-2-carbonitrile]		
105 nM	916 nM	14200 nM	CO[C@@H]1C[C@@H]2CC(NCC(=O)N3C[C@@H](F)C[C@H]3C#N)C3(CC3)[C@@H]2C1 (stereo partly drawn) [Example 11, (2S,4S)-4-fluoro-1-(2-(((3a′S,5′R,6a′R)-5′-methoxyhexahydro-2′H-spiro[cyclopropane-1,1′-pentalen]-2′-yl)amino)acetyl)pyrrolidine-2-carbonitrile]		
1.56 nM	20 nM	1260 nM	C[C@@]1(NCC(=O)N2C[C@@H](F)C[C@H]2C#N)C[C@H]2CC(C#N)C[C@H]2C1 (stereo partly drawn) [Example 15, (2S,4S)-1-(2-(((2s,3aR,6aS)-5-cyano-2-methyloctahydropentalen-2-yl)amino)acetyl)-4-fluoropyrrolidine-2-carbonitrile]	24.72%	good hypoglycemic activities
2.53 nM	242 nM	20100 nM	CC(=O)O[C@@H]1C[C@@H]2C[C@@](C)(NCC(=O)N3CCC[C@H]3C#N)C[C@@H]2C1 [Example 18, (2S,3aR,5r,6aS)-5-((2-((S)-2-cyanopyrrolidin-1-yl)-2-oxoethyl)amino)-5-methyloctahydropentalen-2-yl acetate]		
2.72 nM	48 nM	3700 nM	CC(=O)O[C@@H]1C[C@@H]2C[C@@](C)(NCC(=O)N3C[C@@H](F)C[C@H]3C#N)C[C@@H]2C1 [Example 17, (2S,3aR,5r,6aS)-5-((2-((2S,4S)-2-cyano-4-fluoropyrrolidin-1-yl)-2-oxoethyl)amino)-5-methyloctahydropentalen-2-yl acetate]	30.4%	good hypoglycemic activities
1.37 nM	340 nM	12800 nM	C[C@@]1(NCC(=O)N2CCC[C@H]2C#N)C[C@H]2CC(C#N)C[C@H]2C1 (stereo partly drawn) [Example 16, (2S)-1-(2-(((2s,3aR,6aS)-5-cyano-2-methyloctahydropentalen-2-yl)amino)acetyl)pyrrolidine-2-carbonitrile]	24.69%	good hypoglycemic activities
2.5 nM	12.4 nM	900 nM	CO[C@H]1C[C@@H]2C[C@@](C)(NCC(=O)N3C[C@@H](F)C[C@H]3C#N)C[C@@H]2C1 [Example 4, (2S,4S)-4-fluoro-1-(2-(((2r,3aR,5R,6aS)-5-methoxy-2-methyloctahydropentalen-2-yl)amino)acetyl)pyrrolidine-2-carbonitrile]		
9.23 nM			C[C@@]1(NCC(=O)N2CCC[C@H]2C#N)C[C@H]2C[C@@H](OC3CC3)C[C@H]2C1 [Example 14, (S)-1-(2-(((2r,3aR,5S,6aS)-5-cyclopropoxy-2-methyloctahydropentalen-2-yl)amino)acetyl)pyrrolidine-2-carbonitrile]		
171 nM			C[C@@]1(NCC(=O)N2C3C[C@H]3C[C@H]2C#N)C[C@H]2C[C@@H](O)C[C@H]2C1 (stereo partly drawn) [Example 12, (1S,3S,5S)-2-(2-(((2r,3aR,5S,6aS)-5-hydroxy-2-methyloctahydropentalen-2-yl)amino)acetyl)-2-azabicyclo[3.1.0]hexane-3-carbonitrile]		
25.8 nM			C[C@@]1(NCC(=O)N2C[C@@H](F)C[C@H]2C#N)C[C@H]2CC3(CCO3)C[C@H]2C1 (stereo partly drawn) [Example 19, (2S,4S)-4-fluoro-1-(2-(((3a′R,5′r,6a′S)-5′-methylhexahydro-1′H-spiro[oxetane-2,2′-pentalen]-5′-yl)amino)acetyl)pyrrolidine-2-carbonitrile]		
